Experimental data taken from patent US20240199601A1, “QUINONE COMPOUND AND PHARMACEUTICAL USE THEREOF” (NANJING SHUPENG LIFE SCIENCE CO., LTD., priority 2021, published 2024).

Key:
[1] = tested on: inflammatory pain model (complete Freund's adjuvant); assay: Inflammatory pain model (complete Freund's adjuvant), mechanical pain threshold; type: in vivo, SD rats; details: rats
Experimental: 4 SD rats with a body weight of 200-250 g were used as a blank control (NC), and normal saline was injected into the soles of the left feet of the rats. Inflammatory pain models of 18 rats were constructed, that is to say, 100 μL of a complete Freund's adjuvant was injected into soles of the left feet of the rats, mechanical pain thresholds of the left feet were detected by an ALMEMO2490 data collector 24 hours later, 2 rats with a pain threshold of greater than 15 were abandoned, and the other 16 rats were randomly divided into 4 groups with 4 rats in each group and then administered with water as a positive control (PC), SP3101 (20 mg/kg), PQQ (20 mg/kg) and ibuprofen (25 mg/kg/day) by gavage, respectively.

[2] = tested on: inflammatory pain model with AMPK inhibited; assay: Long-acting analgesic mechanism: CFA pain model with AMPK inhibitor compound c; type: in vivo, SD rats; details: compound c (Dorsomorphin) into caudal vein half an hour before oral SP3101 20 mg/kg, rats
Experimental: Similar to the modeling method in Activity Test 1, 100 uL of a complete Freund's adjuvant was injected into the soles of the left feet of SD rats with a body weight of 200-250 g, mechanical pain thresholds of the left feet were detected by an ALMEMO2490 data collector 24 hours later, and the rats with a pain threshold of greater than 15 were abandoned. On the second day of modeling, 100 μL of a compound c as an AMPK inhibitor (Dorsomorphin, CAS No.866405-64-3, CC, 0.4 mg/ml) was injected into the caudal vein of each rat, the rats were orally administered with SP3101 (20 mg/kg) half an hour later, and the pain thresholds were detected after 1.5 hours and 24 hours, respectively.

[3] = tested on: antioxidant transcription factor (Nrf2); assay: Nrf2 expression in RAW264.7 cells (protein hybridization); type: cell-based; details: different concentrations, 24 hours
Experimental: RAW264.7 cells were inoculated into two six-well plates and enabled to grow to a density of about 90%, and SP3101 and SP3102 of different concentrations were added, respectively. 24 hours later, the cells were lysed with a radio immunoprecipitation assay (RIPA) lysis buffer, and the expression of proteins was detected by protein hybridization.
Phosphorylation of serine at the 127th site of AMPK is used as an activation marker. […] It can be seen that the compounds, represented by the SP3101 and the SP3102, of the present invention are used as an AMPK agonist.

[4] = tested on: chronic constriction injury (CCI) model; assay: Neuropathic pain, CCI model of the sciatic nerve, Von Frey; type: in vivo, B6 mice; details: 40 mg/kg by gavage, 1.5, 24 and 48 hours after administration, CCI mice, p<0.01
Excerpt: A CCI model was used for realizing neuropathic pain. 6- to 8-week-old B6 mice were anesthetized, shaved from the roots of the left legs to parts about 1-2 mm higher than the horizontal lines of the tail root bones, and cut horizontally to obtain small wounds. Muscles were bluntly separated by hemostatic forceps, the sciatic nerves were found and picked out with elbow tweezers, and 4-0 chromium-containing catgut sutures soaked in sterile normal saline in advance were picked out with another elbow tweezer. Three catgut sutures were penetrated through the sciatic nerve of each mouse and ligatured in an upper part, a middle part and a lower part at a distance of 1 mm, respectively at an appropriate intensity enabling surrounding muscles to have small and transient twitches. […]
On day 7 after surgery, mechanical pain thresholds of the mice were detected by using Von Frey fibrils. […] Then, the mice were stimulated again at an adjacent lower intensity, and the intensity interval of first positive responses and negative responses was recorded. […]
The test mice were divided into three groups: an unmolded group, a molded solvent group and a molded administration group. 0.5% methylcellulose was used as a solvent, SP3101 was used as a drug and administered at a dose of 40 mg/kg according to the body weight each time, and the pain thresholds were detected 1.5, 24, 48 and 72 hours after administration.

[5] = tested on: movement of the mice in an open field; assay: Sedation test, open field test (OFT); type: in vivo, B6 mice; details: single intraperitoneal injection 20 or 50 mg/kg, 2 hours after administration
Experimental: A total of 15 12-week-old male B6 mice were selected and allowed to adapt to the environment for three days. The mice were randomly divided into 3 groups including: (1) a blank control group (n=5), (2) a low-dose SP3101 group at a dose of 20 mg/kg (n=5) and (3) a high-dose SP3101 group at a dose of 50 mg/kg (n=5). The mice were administered by intraperitoneal injection at a single dose according to the groups, where the mice in the blank control group were administered with an equal volume of normal saline by intraperitoneal injection. 2 hours after the administration, the mice were traced by a video tracking and detection system in an open field test (OFT), followed by behavioral evaluation.

AMPK = AMPK phosphorylation level in a variety of cells; type: cell-based; details: 100 nM

With O=C1C(=O)c2nc(O)cc(C(=O)O)c2-c2[nH]ccc21 [SP3101, 4,5-dioxo-4,5-dihydro-1H-pyrrolo[2,3-f]quinone-7-hydroxy-9-carboxylic acid] the overall analgesic profile ([1]; CFA inflammatory pain model, oral) was “rapid analgesic effect and a long-acting analgesic effect”, the “analgesic effect on day 5-7” value ([1]; single oral 20 mg/kg, compared with model group (PC)) was “the analgesic effect is reduced” and the “duration of the analgesic effect” value ([1]; single oral dose (SP3101 20 mg/kg)) was 72 h. The “analgesic effect 1.5 hours after oral administration” value ([1]; single oral dose (SP3101 20 mg/kg), mechanical pain threshold vs model group) was “obvious analgesic effect”, the “long-acting (24 hours) analgesic effect while AMPK is inhibited” value [2] was “eliminated” and the “short-acting (1.5 hours) analgesic effect while AMPK is inhibited” value [2] was “not affected”. The “expression of antioxidant transcription factor (Nrf2)” value [3] was “increased in a dose-dependent manner”, the “analgesic effect (Von Frey mechanical pain threshold)” value [4] was “obvious analgesic effect” and the “movement of the mice in an open field (sedative effect)” value [5] was “obviously reduces movement of the mice in an open field”. The “phosphorylation level of the AMPK” value (AMPK) was “significantly up-regulate”.
